Values quoted from earlier work in patent publication US20200319065A1, “STABLE DITHIZONE SOLUTIONS AND FORMULATIONS AND METHODS FOR THEIR USE” (CITY OF HOPE, priority 2019, published 2020).

- solubility in organic solvents (ethanol, chloroform and DMSO): solubilizes partially
- solubility in water (water): relatively insoluble
SMILES: S=C(N=Nc1ccccc1)NNc1ccccc1 [DTZ, Dithizone]
